Our source for the relative viability values is the supplement of paper PMC10307832.

Assay in all cases: relative viability (nuclei count vs DMSO), 5 days (fraction); higher = more cells survive
Compound in assay [1]: O=C(CCCCCCNC(=O)c1cnc(N(c2ccccc2)c2ccccc2)nc1)NO [Ricolinostat] + C[C@]1(O)C[C@@H](c2nc(-c3ccc4ccc(-c5ccccc5)nc4c3)c3c(N)nccn32)C1 [Linsitinib] (partner 1 µM)
The method, boiled down:
(§1)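 Medians of duplicate plates are given as relative viability. That measure is the nuclei count in treated wells divided by the count in vehicle wells. Counts were taken on 4× images of lung cancer cell lines in 1536-well plates, 5 days after pin-tool dosing the day after seeding with one drug alone or a fixed anchor-drug dose plus five library-drug doses (not always all listed) in √10 steps.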

Compound in assay [2]: C1=CC=C(C(=C1)C2=CC=C(C=C2)C3=CSC4=C3C(=C(C(=O)N4)C#N)O)O + CCNC(=O)c1noc(-c2cc(C(C)C)c(O)cc2O)c1-c1ccc(CN2CCOCC2)cc1 [Luminespib] (partner 0.01 µM)
The method, boiled down:
as §1

Compound in assay [3]: CC1=CN2C(=O)C=C(N=C2C(=C1)C(C)NC3=CC=CC=C3)N4CCOCC4 [TGX 221] + C[C@]1(O)C[C@@H](c2nc(-c3ccc4ccc(-c5ccccc5)nc4c3)c3c(N)nccn32)C1 [Linsitinib] (partner 1 µM)
The method, boiled down:
as §1

Compound in assay [4]: CC1=CN2C(=O)C=C(N=C2C(=C1)C(C)NC3=CC=CC=C3)N4CCOCC4 [TGX 221] + CCNC(=O)c1noc(-c2cc(C(C)C)c(O)cc2O)c1-c1ccc(CN2CCOCC2)cc1 [Luminespib] (partner 0.01 µM)
The method, boiled down:
as §1

Take NCI-H1792: the relative viability in assay [1] (first compound 0.08 µM) was 0.438; in assay [1] (first compound 0.253 µM), 0.545; in assay [1] (first compound 0.8 µM), 0.43; in assay [1] (first compound 2.53 µM), 0.428; in assay [2] (first compound 0.253 µM), 0.576; in assay [2] (first compound 0.8 µM), 0.641. In addition, the relative viability worked out at 0.473 in assay [2] (first compound 2.53 µM); 0.288 in assay [2] (first compound 8 µM); 0.501 in assay [3] (first compound 0.08 µM); 0.553 in assay [3] (first compound 0.253 µM); 0.361 in assay [3] (first compound 0.8 µM); 0.435 in assay [3] (first compound 2.53 µM). The relative viability in assay [3] (first compound 8 µM) worked out at 0.326; in assay [4] (first compound 0.08 µM) it was 0.52; in assay [4] (first compound 0.253 µM), 0.498; in assay [4] (first compound 0.8 µM), 0.418; in assay [4] (first compound 2.53 µM), 0.375; in assay [4] (first compound 8 µM), 0.293.
